Test: Pharmacokinetics in SD rats, single IV injection
Type: in vivo, Sprague-Dawly (SD) rats
Conditions: for AUClast / AUC∞ / Clearance / Observed Cmax / Terminal Elimination Half-Life: analyte (S)-YK-4-279 in plasma
Experimental: To optimize dosing in animals, we determined the pharmacokinetics of YK-4-279 and its single enantiomers in Sprague-Dawly (SD) rats. Three rats of each gender were assigned to nine dose groups. Animals in Groups 1 through 3 received a single intravenous (IV) injection of racemic mixture, (S)-YK-4-279, or (R)-YK-4-279 at a dose of 25 mg/kg. Animals in Groups 4 through 9 received a single oral gavage administration of racemic mixture, (S)-YK-4-279, or (R)-YK-4-279 at a dosage level of 25 or 50 mg/kg. […] However, given that approximately 50 percent of the racemic mixture is (S)-YK-4-279 and the clearance […] the dose, the IV clearance of (S)-YK-4-279 is considered to be similar whether a racemic mixture or only (S)-YK-4-279 is administered. Systemic exposure to (S)-YK-4-279 was evaluated using Cmax and AUC values. Cmax and AUC8 values were similar between males and females for a given dose group. With an expected enantiomer ratio of 1:1 in the racemic dose, Group 2 animals would have received a 2-fold higher dose of (S)-YK-4-279 than Group 1 animals. […] Absolute bioavailability of (S)-YK-4-279 following gavage administration, using cremophor/ethanol as an excipient, in SD rats was only 2–6% (Table 2).
Nine SD rats of each gender were assigned to nine dose groups. Groups 1 through 3 received a single IV injection of racemic mixture, (S)-YK-4-279, or (R)-YK-4-279 at a dose of 25 mg/kg. Groups 4 through 9 received a single gavage administration of racemic mixture, (S)-YK-4-279, or (R)-YK-4-279 at a dosage level of 25 or 50 mg/kg. Blood samples were collected from one animal per group per time point at target time points of pre-dose, 5, 15, 30 and 60 minutes, and 2, 4, 8 and 12 hours following dosing. Plasma was obtained from the samples and analyzed for (S) and (R)-YK-4-279 concentrations.
The plasma and tumor sample analysis was performed using calibration standards and Quality Control (QC) samples prepared in control rat or mouse plasma and tumor tissues. Plasma and tumor calibration standards were prepared from stock solutions of YK-4-279. The calibration standards, blanks, QC samples, and study samples were then processed by solid-liquid extraction (SLE) followed by analysis using liquid chromatography with mass spectrometry (LC-MS). The LC-MS systems used for the analysis of YK-4-279 was composed of Shimadzo prominence pump and auto-sampler (Kyoto, Japan), a Sciex API 5000 MS (Toronto, Ontario), with turbo ion spary in the positive ion mode. The samples for the analysis of total YK-4-279 were injected into a 50 × 2 mm Gemini- NX, 5 ¼m column (Phenomenex, Torrance, CA). The samples for the analysis of the specific enantiomers of YK-4-279 were injected into a 150 × 2 mm Lux Cellulose-2, 3 ¼m Phenomenex column. The transitions monitored were 366 amu to 135 amu for YK-4-279 and 369 amu to 138 amu for the YK-4-279-d3 internal standard. YK-4-279 concentrations were calculated using peak area response ratios and a regression equation constructed from the concentrations and peak area response ratios of the calibration standards. The lower limit of quantitation was 5.0 ng/mL in plasma and […] in tumor tissue. The concentration-time profiles were evaluated by compartmental modeling and non-compartmental analysis using WinNonlin (Pharsight Corporation, Mountain View, CA). The PK parameters obtained from the compartmental modeling were used in simulations to identify optimal dose level and dosing schedule for maintaining plasma concentration of (S)-YK-4-279 above 3 ¼M.

[1] = SD rats, female (n=9), single IV injection 25 mg/kg
[2] = SD rats, male (n=9), single IV injection 25 mg/kg
[3] = SD rats, single IV injection 25 mg/kg, average of males and females, analyte (S)-YK-4-279

Structure (SMILES) | Clearance slower than the clearance of (S)-YK-4-279 (SD rats (Supplemental table 1, not available)) | AUClast [1] | AUC∞ [1] | Clearance [1] | Observed Cmax [1] | Terminal Elimination Half-Life [1] | AUClast [2] | AUC∞ [2] | Clearance [2] | Observed Cmax [2] | Terminal Elimination Half-Life [2] | Average clearance [3] [mL/min/kg] | Average elimination half-life [3] [min]
COc1ccc(C(=O)C[C@]2(O)C(=O)Nc3c(Cl)ccc(Cl)c32)cc1 [(R)-YK-4-279] | approximately 25% | BLOQ | BLOQ | BLOQ | BLOQ | BLOQ | BLOQ | BLOQ | BLOQ | BLOQ1 | BLOQ |  | 
COc1ccc(C(=O)CC2(O)C(=O)Nc3c(Cl)ccc(Cl)c32)cc1 (centres unmarked) [YK-4-279] |  | 25.6 hr*¼M | 25.9 hr*¼M | 44 mL/min/kg | 37.1 ¼M | 36.1 min | 26.5 hr*¼M | 26.7 hr*¼M | 42.67 mL/min/kg | 39.9 ¼M | 33.8 min | 43.33 | 35
